Measured values published in PMC12514245, “Impaired migration and lung invasion of human melanoma by a novel small molecule targeting the transmembrane domain of death receptor p75^NTR” (EMBO Molecular Medicine, 2025).
Values joined by “and” are separate entries in the source; they are usually repeats but may differ in a detail not shown here. Equal entries are not always repeated.

Experiments:
A875 melanoma cells (NT) = test: Cleaved PARP western blot (apoptosis), A875 NT; format: cell-based, human
Experimental: One of the main biological readouts of p75^NTR activity in response to neurotrophins is the induction of caspase-mediated apoptotic cell death (Underwood and Coulson, [2008]; Friedman, [2010]; Ibáñez and Simi, [2012]).
COS7, A875 and WM115 cell lines were cultured under standard conditions in DMEM supplemented with 10% fetal calf serum, 100 units/ml penicillin, […] streptomycin, and 2.5 mM glutamine. All cells were authenticated and tested for mycoplasma contamination. A875-NT (control) and A875 shp75 (knockdown) cell lines were described previously (Goh et al, [2018]).

p75^NTR TMD V254A = target: T1, p75^NTR TMD V254A (Homo sapiens, UniProt P08138, V254A); test: AraTM assay, V254A mutant p75NTR TMD; format: cell-based; conditions: for GFP/OD630, Mean / GFP/OD630, individual replicates: V254A;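 on GFP/OD630, Mean: normalised to the no-drug GFP/OD630 signal set at 100%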;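 on GFP/OD630, individual replicates: normalised to the no-drug GFP/OD630 signal set at 100%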
T1 construct: Comparison of wild-type (WT) p75^NTR TMD and I252A, P253G and V254A mutants in the AraTM assay; expressed in transfected cells; host or cells: E. coli AS19 (LPS-negative)
T1 sequence (P08138 250-275 V254A): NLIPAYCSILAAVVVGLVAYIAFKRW

A875 NT cells = test: Wound healing cell motility assay, A875 NT; format: cell-based, human; conditions: for Fold (wound area) / Wound area (Fold): A875 NT; for Fold (wound area): 0.75uM
Experimental: For wound healing assay, cells were grown until confluency and subjected to a wound across the cell mono-layer. Cells were then incubated with serum-free media either with DMSO or a small molecule (with or without 5 µM Q_VD_poH) and imaged at specific time-points. Cell migration is reflected as fold change in wound area over time.

SMILES: Cc1cccc(-c2cncc(Nc3ccc(Br)c(Cl)c3Cl)n2)c1C [Np75-4A22]
- Cleaved PARP normalized to DMSO, individual replicates (A875 melanoma cells (NT); 0.5uM): 5.004 and 2.098 and 0.920
- Cleaved PARP/actin, individual replicates (A875 melanoma cells (NT); 0.5uM): 0.036 and 0.018 and 0.00739
- Cleaved PARP normalized to DMSO, Average (A875 melanoma cells (NT); 0.5μM): 2.674
- Cleaved PARP normalized to DMSO, individual replicates (A875 melanoma cells (NT); 1uM): 1.063 and 1.446 and 0.643
- Cleaved PARP/actin, individual replicates (A875 melanoma cells (NT); 1uM): 0.008 and 0.012 and 0.005
- Cleaved PARP normalized to DMSO, Average (A875 melanoma cells (NT); 1μM): 1.051
- Cleaved PARP normalized to DMSO, individual replicates (A875 melanoma cells (NT); 2uM): 0.550 and 3.611 and 2.270
- Cleaved PARP/actin, individual replicates (A875 melanoma cells (NT); 2uM): 0.004 and 0.031 and 0.018
- Cleaved PARP normalized to DMSO, Average (A875 melanoma cells (NT); 2μM): 2.144
- Cleaved PARP normalized to DMSO, individual replicates (A875 melanoma cells (NT); 5uM): 1.726 and 2.128 and 2.224
- Cleaved PARP/actin, individual replicates (A875 melanoma cells (NT); 5uM): 0.013 and 0.018
- Cleaved PARP normalized to DMSO, Average (A875 melanoma cells (NT); 5μM): 2.026
- apoptosis (PARP cleavage) (A875 melanoma cells (NT); submicromolar and low micromolar range (0.5 to 5 µM)): did not induce apoptosis
- effect of Val254 mutation on compound activity in AraTM assay (p75^NTR TMD V254A): unaffected
- GFP/OD630, Mean (p75^NTR TMD V254A; compound 5 μM): 0.83
- GFP/OD630, individual replicates (p75^NTR TMD V254A; compound 5 μM): 0.98 and 0.74 and 0.77
- GFP/OD630, Mean (p75^NTR TMD V254A; compound 10 μM): 0.64
- GFP/OD630, individual replicates (p75^NTR TMD V254A; compound 10 μM): 0.63 (2×) and 0.65
- GFP/OD630, Mean (p75^NTR TMD V254A; compound 20 μM): 0.61
- GFP/OD630, individual replicates (p75^NTR TMD V254A; compound 20 μM): 0.46 and 0.62 and 0.74
- GFP/OD630, Mean (p75^NTR TMD V254A; compound 30 μM): 0.47
- GFP/OD630, individual replicates (p75^NTR TMD V254A; compound 30 μM): 0.41 and 0.51 and 0.50
- GFP/OD630, Mean (p75^NTR TMD V254A; compound 40 μM): 0.54
- GFP/OD630, individual replicates (p75^NTR TMD V254A; compound 40 μM): 0.57 and 0.51 and 0.53
- Fold (wound area) (A875 NT cells; 0 h, Average): 1.000 Fold
- Fold (wound area) (A875 NT cells; 0 h, n1): 1.000 Fold
- Fold (wound area) (A875 NT cells; 0 h, n2): 1.000 Fold
- Fold (wound area) (A875 NT cells; 0 h, n3): 1.000 Fold
- Fold (wound area) (A875 NT cells; 3 h, Average): 0.916 Fold
- Fold (wound area) (A875 NT cells; 3 h, n1): 0.908 Fold
- Fold (wound area) (A875 NT cells; 3 h, n2): 0.920 Fold
- Fold (wound area) (A875 NT cells; 3 h, n3): 0.920 Fold
- Fold (wound area) (A875 NT cells; 6 h, Average): 0.871 Fold
- Fold (wound area) (A875 NT cells; 6 h, n1): 0.867 Fold
- Fold (wound area) (A875 NT cells; 6 h, n2): 0.870 Fold
- Fold (wound area) (A875 NT cells; 6 h, n3): 0.875 Fold
- Fold (wound area) (A875 NT cells; 9 h, Average): 0.851 Fold
- Fold (wound area) (A875 NT cells; 9 h, n1): 0.821 Fold
- Fold (wound area) (A875 NT cells; 9 h, n2): 0.862 Fold
- Fold (wound area) (A875 NT cells; 9 h, n3): 0.870 Fold
- Fold (wound area) (A875 NT cells; 12 h, Average): 0.799 Fold
- Fold (wound area) (A875 NT cells; 12 h, n1): 0.783 Fold
- Fold (wound area) (A875 NT cells; 12 h, n2): 0.824 Fold
- Fold (wound area) (A875 NT cells; 12 h, n3): 0.790 Fold
- Fold (wound area) (A875 NT cells; 15 h, Average): 0.781 Fold
- Fold (wound area) (A875 NT cells; 15 h, n1): 0.755 Fold
- Fold (wound area) (A875 NT cells; 15 h, n2): 0.799 Fold
- Fold (wound area) (A875 NT cells; 15 h, n3): 0.789 Fold
- Fold (wound area) (A875 NT cells; 18 h, Average): 0.759 Fold
- Fold (wound area) (A875 NT cells; 18 h, n1): 0.732 Fold
- Fold (wound area) (A875 NT cells; 18 h, n2): 0.791 Fold
- Fold (wound area) (A875 NT cells; 18 h, n3): 0.755 Fold
- Fold (wound area) (A875 NT cells; 21 h, Average): 0.739 Fold
- Fold (wound area) (A875 NT cells; 21 h, n1): 0.694 Fold
- Fold (wound area) (A875 NT cells; 21 h, n2): 0.751 Fold
- Fold (wound area) (A875 NT cells; 21 h, n3): 0.773 Fold
- Fold (wound area) (A875 NT cells; 24 h, Average): 0.707 Fold
- Fold (wound area) (A875 NT cells; 24 h, n1): 0.674 Fold
- Fold (wound area) (A875 NT cells; 24 h, n2): 0.730 Fold
- Fold (wound area) (A875 NT cells; 24 h, n3): 0.715 Fold
- Wound area (Fold) (A875 NT cells; 1uM, 0 h, Mean): 1.000 Fold
- Wound area (Fold) (A875 NT cells; 1uM, 0 h, n1): 0.9625 Fold
- Wound area (Fold) (A875 NT cells; 1uM, 0 h, n2): 0.9804 Fold
- Wound area (Fold) (A875 NT cells; 1uM, 0 h, n3): 1.057 Fold
- Wound area (Fold) (A875 NT cells; 1uM, 3 h, Mean): 0.967 Fold
- Wound area (Fold) (A875 NT cells; 1uM, 3 h, n1): 0.9475 Fold
- Wound area (Fold) (A875 NT cells; 1uM, 3 h, n2): 1.012 Fold
- Wound area (Fold) (A875 NT cells; 1uM, 3 h, n3): 0.9416 Fold
- Wound area (Fold) (A875 NT cells; 1uM, 6 h, Mean): 0.905 Fold
- Wound area (Fold) (A875 NT cells; 1uM, 6 h, n1): 0.8734 Fold
- Wound area (Fold) (A875 NT cells; 1uM, 6 h, n2): 0.9482 Fold
- Wound area (Fold) (A875 NT cells; 1uM, 6 h, n3): 0.8944 Fold
- Wound area (Fold) (A875 NT cells; 1uM, 9 h, Mean): 0.855 Fold
- Wound area (Fold) (A875 NT cells; 1uM, 9 h, n1): 0.8188 Fold
- Wound area (Fold) (A875 NT cells; 1uM, 9 h, n2): 0.9061 Fold
- Wound area (Fold) (A875 NT cells; 1uM, 9 h, n3): 0.8389 Fold
- Wound area (Fold) (A875 NT cells; 1uM, 12 h, Mean): 0.827 Fold
- Wound area (Fold) (A875 NT cells; 1uM, 12 h, n1): 0.7941 Fold
- Wound area (Fold) (A875 NT cells; 1uM, 12 h, n2): 0.8768 Fold
- Wound area (Fold) (A875 NT cells; 1uM, 12 h, n3): 0.8105 Fold
- Wound area (Fold) (A875 NT cells; 1uM, 15 h, Mean): 0.795 Fold
- Wound area (Fold) (A875 NT cells; 1uM, 15 h, n1): 0.7522 Fold
- Wound area (Fold) (A875 NT cells; 1uM, 15 h, n2): 0.8472 Fold
- Wound area (Fold) (A875 NT cells; 1uM, 15 h, n3): 0.7844 Fold
- Wound area (Fold) (A875 NT cells; 1uM, 18 h, Mean): 0.773 Fold
- Wound area (Fold) (A875 NT cells; 1uM, 18 h, n1): 0.739 Fold
- Wound area (Fold) (A875 NT cells; 1uM, 18 h, n2): 0.8198 Fold
- Wound area (Fold) (A875 NT cells; 1uM, 18 h, n3): 0.7589 Fold
- Wound area (Fold) (A875 NT cells; 1uM, 21 h, Mean): 0.762 Fold
- Wound area (Fold) (A875 NT cells; 1uM, 21 h, n1): 0.7242 Fold
- Wound area (Fold) (A875 NT cells; 1uM, 21 h, n2): 0.8105 Fold
- Wound area (Fold) (A875 NT cells; 1uM, 21 h, n3): 0.7528 Fold
- Wound area (Fold) (A875 NT cells; 1uM, 24 h, Mean): 0.743 Fold
- Wound area (Fold) (A875 NT cells; 1uM, 24 h, n1): 0.7122 Fold
- Wound area (Fold) (A875 NT cells; 1uM, 24 h, n2): 0.7843 Fold
- Wound area (Fold) (A875 NT cells; 1uM, 24 h, n3): 0.7318 Fold
- Wound area (Fold) (A875 NT cells; 2uM, 0 h, Mean): 1.000 Fold
- Wound area (Fold) (A875 NT cells; 2uM, 0 h, n1): 1.119 Fold
- Wound area (Fold) (A875 NT cells; 2uM, 0 h, n2): 0.971 Fold
- Wound area (Fold) (A875 NT cells; 2uM, 0 h, n3): 0.910 Fold
- Wound area (Fold) (A875 NT cells; 2uM, 3 h, Mean): 0.939 Fold
- Wound area (Fold) (A875 NT cells; 2uM, 3 h, n1): 0.920 Fold
- Wound area (Fold) (A875 NT cells; 2uM, 3 h, n2): 0.934 Fold
- Wound area (Fold) (A875 NT cells; 2uM, 3 h, n3): 0.964 Fold
- Wound area (Fold) (A875 NT cells; 2uM, 6 h, Mean): 0.916 Fold
- Wound area (Fold) (A875 NT cells; 2uM, 6 h, n1): 0.889 Fold
- Wound area (Fold) (A875 NT cells; 2uM, 6 h, n2): 0.924 Fold
- Wound area (Fold) (A875 NT cells; 2uM, 6 h, n3): 0.935 Fold
- Wound area (Fold) (A875 NT cells; 2uM, 9 h, Mean): 0.883 Fold
- Wound area (Fold) (A875 NT cells; 2uM, 9 h, n1): 0.869 Fold
- Wound area (Fold) (A875 NT cells; 2uM, 9 h, n2): 0.889 Fold
- Wound area (Fold) (A875 NT cells; 2uM, 9 h, n3): 0.891 Fold
- Wound area (Fold) (A875 NT cells; 2uM, 12 h, Mean): 0.872 Fold
- Wound area (Fold) (A875 NT cells; 2uM, 12 h, n1): 0.845 Fold
- Wound area (Fold) (A875 NT cells; 2uM, 12 h, n2): 0.886 Fold
- Wound area (Fold) (A875 NT cells; 2uM, 12 h, n3): 0.885 Fold
- Wound area (Fold) (A875 NT cells; 2uM, 15 h, Mean): 0.864 Fold
- Wound area (Fold) (A875 NT cells; 2uM, 15 h, n1): 0.827 Fold
- Wound area (Fold) (A875 NT cells; 2uM, 15 h, n2): 0.886 Fold
- Wound area (Fold) (A875 NT cells; 2uM, 15 h, n3): 0.880 Fold
- Wound area (Fold) (A875 NT cells; 2uM, 18 h, Mean): 0.859 Fold
- Wound area (Fold) (A875 NT cells; 2uM, 18 h, n1): 0.819 Fold
- Wound area (Fold) (A875 NT cells; 2uM, 18 h, n2): 0.879 Fold
- Wound area (Fold) (A875 NT cells; 2uM, 18 h, n3): 0.879 Fold
- Wound area (Fold) (A875 NT cells; 2uM, 21 h, Mean): 0.856 Fold
- Wound area (Fold) (A875 NT cells; 2uM, 21 h, n1): 0.813 Fold
- Wound area (Fold) (A875 NT cells; 2uM, 21 h, n2): 0.878 Fold
- Wound area (Fold) (A875 NT cells; 2uM, 21 h, n3): 0.878 Fold
- Wound area (Fold) (A875 NT cells; 2uM, 24 h, Mean): 0.847 Fold
- Wound area (Fold) (A875 NT cells; 2uM, 24 h, n1): 0.809 Fold
- Wound area (Fold) (A875 NT cells; 2uM, 24 h, n2): 0.868 Fold
- Wound area (Fold) (A875 NT cells; 2uM, 24 h, n3): 0.864 Fold
- wound healing assay (A875 NT cells; low micromolar and submicromolar concentrations): considerable inhibitory activity
